Our source for the Activity values is ChEMBL document CHEMBL4373660, “The synthesis and biological evaluation of novel gardenamide A derivatives as multifunctional neuroprotective agents” (Medchemcomm, 2019).

SMILES strings stand for the structures.

The test system of one experiment is Cortical neurone. Briefly: Neuroprotective activity against OGD-induced neurotoxicity in Sprague-Dawley rat cortical neuron assessed as cell survival rate at 0.1 uM pretreated for 24 hrs followed by incubation in oxygen and glucose deprivation medium for 2 hrs followed by exposure to reoxygenation by re-incubating in normoxia condition for 24 hrs by MTT assay (reference value: 58.5 to 61.2 %). The format is functional. (In general: Formazan colour is commonly taken as a measure of viable cells.)
Consider `COC(=O)C1=CN(C)C(=O)[C@@H]2C(CN3CCN(Cc4cccc(OC)c4)CC3)=CC[C@H]12.Cl.Cl`, for which the Activity is on record as 59.5%.

Regarding `COC(=O)C1=CN(C)C(=O)[C@@H]2C(CN3CCN(Cc4ccc(C)cc4)CC3)=CC[C@H]12.Cl.Cl`, the Activity is listed as 59%.

`COC(=O)C1=CN(C)C(=O)[C@@H]2C(CN3CCN(Cc4ccccc4)CC3)=CC[C@H]12.Cl.Cl`: the Activity was 58.6%.

Take `COC(=O)C1=CN(C)C(=O)[C@@H]2C(CN3CCN(Cc4cccc(C)c4)CC3)=CC[C@H]12.Cl.Cl`: the Activity is listed as 60.8%.

In the case of `COc1cc2c(cc1OC)C(=O)C(CC1CCN(Cc3ccccc3)CC1)C2` (stereo not drawn) [DONEPEZIL], the Activity is listed as 65.5%.

On to `COC(=O)C1=CN(C(C)C)C(=O)[C@@H]2C(CN3CCN(Cc4cccc(C(F)(F)F)c4)CC3)=CC[C@H]12.Cl.Cl`, for which the Activity is reported as 58.7%.

For `COC(=O)C1=CN(C(C)C)C(=O)[C@@H]2C(CN3CCN(Cc4cccc(C)c4)CC3)=CC[C@H]12.Cl.Cl`, the Activity was determined as 59%.

Take `COC(=O)C1=CN(C(C)C)C(=O)[C@@H]2C(CN3CCN(Cc4cccc(OC)c4)CC3)=CC[C@H]12.Cl.Cl`: the Activity was determined as 60.6%.

Consider `COC(=O)C1=CN(C)C(=O)[C@@H]2C(CN3CCN(Cc4ccc(C(F)(F)F)cc4)CC3)=CC[C@H]12.Cl.Cl`, for which the Activity was determined as 63%.

Take `COC(=O)C1=CN(C)C(=O)[C@@H]2C(CN3CCN(Cc4cccc(C(F)(F)F)c4)CC3)=CC[C@H]12.Cl.Cl`: the Activity was 63.3%.

Turning to `COC(=O)C1=CN(C(C)C)C(=O)[C@@H]2C(CN3CCN(Cc4ccc(C(F)(F)F)cc4)CC3)=CC[C@H]12.Cl.Cl`, the Activity was 59.1%.

A further experiment deals with Cortical neurone. Briefly: Neuroprotective activity against OGD-induced neurotoxicity in Sprague-Dawley rat cortical neuron assessed as cell survival rate at 10 uM pretreated for 24 hrs followed by incubation in oxygen and glucose deprivation medium for 2 hrs followed by exposure to reoxygenation by re-incubating in normoxia condition for 24 hrs by MTT assay (reference value: 58.5 to 61.2 %). The format is functional.
In the case of `COC(=O)C1=CN(C)C(=O)[C@@H]2C(CN3CCN(Cc4cccc(OC)c4)CC3)=CC[C@H]12.Cl.Cl`, the Activity is listed as 72.5%.

As for `COC(=O)C1=CN(C)C(=O)[C@@H]2C(CN3CCN(Cc4ccc(C)cc4)CC3)=CC[C@H]12.Cl.Cl`, the Activity is given as 72.6%.

On to `COC(=O)C1=CN(C)C(=O)[C@@H]2C(CN3CCN(Cc4ccccc4)CC3)=CC[C@H]12.Cl.Cl`, for which the Activity is on record as 72.3%.

On to `COC(=O)C1=CN(C)C(=O)[C@@H]2C(CN3CCN(Cc4cccc(C)c4)CC3)=CC[C@H]12.Cl.Cl`, for which the Activity worked out at 71.9%.

For `COc1cc2c(cc1OC)C(=O)C(CC1CCN(Cc3ccccc3)CC1)C2` (stereo not drawn) [DONEPEZIL], the Activity is recorded as 85.9%.

In the case of `COC(=O)C1=CN(C(C)C)C(=O)[C@@H]2C(CN3CCN(Cc4cccc(C(F)(F)F)c4)CC3)=CC[C@H]12.Cl.Cl`, the Activity amounted to 85.5%.

For `COC(=O)C1=CN(C(C)C)C(=O)[C@@H]2C(CN3CCN(Cc4cccc(C)c4)CC3)=CC[C@H]12.Cl.Cl`, the Activity turned out to be 84.8%.

Regarding `COC(=O)C1=CN(C(C)C)C(=O)[C@@H]2C(CN3CCN(Cc4cccc(OC)c4)CC3)=CC[C@H]12.Cl.Cl`, the Activity came to 64%.

As for `COC(=O)C1=CN(C)C(=O)[C@@H]2C(CN3CCN(Cc4ccc(C(F)(F)F)cc4)CC3)=CC[C@H]12.Cl.Cl`, the Activity is recorded as 80.9%.

Consider `COC(=O)C1=CN(C)C(=O)[C@@H]2C(CN3CCN(Cc4cccc(C(F)(F)F)c4)CC3)=CC[C@H]12.Cl.Cl`, for which the Activity is 80.3%.

Consider `COC(=O)C1=CN(C(C)C)C(=O)[C@@H]2C(CN3CCN(Cc4ccc(C(F)(F)F)cc4)CC3)=CC[C@H]12.Cl.Cl`, for which the Activity was 85.7%.

A further experiment relates to Cortical neurone. Briefly: Neuroprotective activity against OGD-induced neurotoxicity in Sprague-Dawley rat cortical neuron assessed as cell survival rate at 1 uM pretreated for 24 hrs followed by incubation in oxygen and glucose deprivation medium for 2 hrs followed by exposure to reoxygenation by re-incubating in normoxia condition for 24 hrs by MTT assay (reference value: 58.5 to 61.2 %). The format is functional.
For `COC(=O)C1=CN(C)C(=O)[C@@H]2C(CN3CCN(Cc4cccc(OC)c4)CC3)=CC[C@H]12.Cl.Cl`, the Activity was 63.8%.

Regarding `COC(=O)C1=CN(C)C(=O)[C@@H]2C(CN3CCN(Cc4ccc(C)cc4)CC3)=CC[C@H]12.Cl.Cl`, the Activity is given as 66.9%.

For `COC(=O)C1=CN(C)C(=O)[C@@H]2C(CN3CCN(Cc4ccccc4)CC3)=CC[C@H]12.Cl.Cl`, the Activity is reported as 63.7%.

In the case of `COC(=O)C1=CN(C)C(=O)[C@@H]2C(CN3CCN(Cc4cccc(C)c4)CC3)=CC[C@H]12.Cl.Cl`, the Activity was found to be 66.7%.

In the case of `COc1cc2c(cc1OC)C(=O)C(CC1CCN(Cc3ccccc3)CC1)C2` (stereo not drawn) [DONEPEZIL], the Activity was 72.3%.

`COC(=O)C1=CN(C(C)C)C(=O)[C@@H]2C(CN3CCN(Cc4cccc(C(F)(F)F)c4)CC3)=CC[C@H]12.Cl.Cl`: the Activity was determined as 71.6%.

Consider `COC(=O)C1=CN(C(C)C)C(=O)[C@@H]2C(CN3CCN(Cc4cccc(C)c4)CC3)=CC[C@H]12.Cl.Cl`, for which the Activity turned out to be 71.3%.

In the case of `COC(=O)C1=CN(C(C)C)C(=O)[C@@H]2C(CN3CCN(Cc4cccc(OC)c4)CC3)=CC[C@H]12.Cl.Cl`, the Activity was determined as 62.1%.

For the molecule `COC(=O)C1=CN(C)C(=O)[C@@H]2C(CN3CCN(Cc4ccc(C(F)(F)F)cc4)CC3)=CC[C@H]12.Cl.Cl`, the Activity is listed as 72.2%.

As to `COC(=O)C1=CN(C)C(=O)[C@@H]2C(CN3CCN(Cc4cccc(C(F)(F)F)c4)CC3)=CC[C@H]12.Cl.Cl`, the Activity is reported as 72.5%.

Regarding `COC(=O)C1=CN(C(C)C)C(=O)[C@@H]2C(CN3CCN(Cc4ccc(C(F)(F)F)cc4)CC3)=CC[C@H]12.Cl.Cl`, the Activity is given as 71.6%.
